Measured values taken from US20250368635A1, “HETEROARYL DERIVATIVE COMPOUND, AND USES THEREOF” (VORONOI, INC., priority 2022, published 2025).

These compounds were tested on Ba/F3 cells expressing EGFR Del19/C797S (EGFR DC) (assay: Inhibition of proliferation of Ba/F3 cells expressing EGFR Del19/C797S (CellTiter-Glo, 72 h)). Conditions: Mus musculus, BaF3, 72 hours treatment.
Type: cell-based
Method: The following experiment was performed to evaluate the inhibitory activity of the compounds according to the present invention on the proliferation of Ba/F3 cells expressing EGFR Del19/C797S (EGFR DC) and EGFR L858R/C797S (EGFR LC) mutations.
Ba/F3 cells were cultured using medium (RPMI-1640) containing 10% fetal bovine serum (FBS) and 5 ng/ml IL-3 (R&D Systems). The transduced Ba/F3 cells were cultured by adding 1 μg/ml puromycin (Invitrogen) to the same medium.
24 hours prior to treatment with compounds, 3,000 to 5,000 cells were seeded on a well plate (white clear bottom 96 well plate, Corning). The compounds were diluted in dimethyl sulfoxide (3-fold dilution, total of 12 concentrations) and injected at 1 μl each so that the final concentration was 0.2 nM to 5 μM. After 72 hours post treatment with compounds, living cells were stored at room temperature for 10 minutes using CellTiter-Glo luminescent cell-viability reagent (Promega), and the luminescence intensity thereof was measured using a reader (Synergy Neo, Biotek). Each test was repeated three times. The result values were calculated as a cell growth rate (%) compared to the control group. A graph was created using the GraphPad Prism version 8.3.0 program, and GI50 values were calculated.

Structure (SMILES)	GI50 [nM]
COc1cc(N2C3COCC2C3)c(-c2cnn(C)c2)cc1Nc1cc(N2OCC[C@@H]2c2cccc(F)c2F)ncn1 [Example 44, N-(4-(3-oxa-6-azabicyclo[3.1.1]heptan-6-yl)-2-methoxy-5-(1-methyl-1H-pyrazol-4-yl)phenyl)-6-((R)-3-(2,3-difluorophenyl)isoxazolidin-2-yl)pyrimidin-4-amine]	100 to 1000
COc1cc2c(cc1Nc1cc(N3OCC[C@@H]3c3cccc(F)c3F)ncn1)-c1cnn(C)c1CCN2C(C)C [Example 47, (R)-N-(6-(3-(2,3-difluorophenyl)isoxazolidin-2-yl)pyrimidin-4-yl)-6-isopropyl-8-methoxy-3-methyl-3,4,5,6-tetrahydrobenzo[b]pyrazolo [4,3-d]azepin-9-amine]	100 to 1000
COc1cc(C23CCOCC2C3)c(-c2cnn(C)c2)cc1Nc1cc(N2OCC[C@@H]2c2cccc(F)c2F)ncn1 (stereo partly drawn) [Example 59, N-(4-(3-oxabicyclo[4.1.0]heptan-6-yl)-2-methoxy-5-(1-methyl-1H-pyrazol-4-yl)phenyl)-6-((R)-3-(2,3-difluorophenyl)isoxazolidin-2-yl)pyrimidin-4-amine]	100 to 1000
COc1cc(C23CCOCC2C3(F)F)c(-c2cnn(C)c2)cc1Nc1cc(N2OCC[C@@H]2c2cccc(F)c2F)ncn1 (stereo partly drawn) [Example 60, N-(4-(7,7-difluoro-3-oxabicyclo[4.1.0]heptan-6-yl)-2-methoxy-5-(1-methyl-1H-pyrazol-4-yl)phenyl)-6-((R)-3-(2,3-difluorophenyl)isoxazolidin-2-yl)pyrimidin-4-amine]	100 to 1000
COc1cc(N2CCC(N3CCC(F)(F)CC3)CC2)c(-c2cnn(C)c2)cc1Nc1cc(N2OCC[C@@H]2c2cccc(F)c2F)ncn1 [Example 61, (R)-N-(4-(4,4-difluoro-[1,4′-bipiperidin]-1′-yl)-2-methoxy-5-(1-methyl-1H-pyrazol-4-yl)phenyl)-6-(3-(2,3-difluorophenyl)isoxazolidin-2-yl)pyrimidin-4-amine]	100 to 1000
COc1cc(N2CCC(N3CC[C@@H](OC)[C@@H](F)C3)CC2)c(-c2cnn(C)c2)cc1Nc1cc(N2OCC[C@@H]2c2cccc(F)c2F)ncn1 [Example 64, 6-((R)-3-(2,3-difluorophenyl)isoxazolidin-2-yl)-N-(4-((3,4R)-3-fluoro-4-methoxy-[1,4′-bipiperidin]-1′-yl)-2-methoxy-5-(1-methyl-1H-pyrazol-4-yl)phenyl)pyrimidin-4-amine]	100 to 1000
COc1cc(N2CC[C@@H](OC)[C@@H](F)C2)c(-c2cnn(C)c2)cc1Nc1cc(N2OCC[C@@H]2c2cccc(F)c2F)ncn1 [Example 66, 6-((R)-3-(2,3-difluorophenyl)isoxazolidin-2-yl)-N-(4-((3,4R)-3-fluoro-4-methoxypiperidin-1-yl)-2-methoxy-5-(1-methyl-1H-pyrazol-4-yl)phenyl)pyrimidin-4-amine]	100 to 1000
COc1cc(N2CCC(N3CC[C@H](OC)C3)CC2)c(-c2cnn(C)c2)cc1Nc1cc(N2OCC[C@@H]2c2cccc(F)c2F)ncn1 [Example 70, 6-((R)-3-(2,3-difluorophenyl)isoxazolidin-2-yl)-N-(2-methoxy-4-(4-((S)-3-methoxypyrrolidin-1-yl)piperidin-1-yl)-5-(1-methyl-1H-pyrazol-4-yl)phenyl)pyrimidin-4-amine]	100 to 1000
COc1cc(N2CCC(N3CC[C@H](F)C3)CC2)c(-c2cnn(C)c2)cc1Nc1cc(N2OCC[C@@H]2c2cccc(F)c2F)ncn1 [Example 71, 6-((R)-3-(2,3-difluorophenyl)isoxazolidin-2-yl)-N-(4-(4-((S)-3-fluoropyrrolidin-1-yl)piperidin-1-yl)-2-methoxy-5-(1-methyl-1H-pyrazol-4-yl)phenyl)pyrimidin-4-amine]	100 to 1000
COc1cc(N2CCC(N3CCOC(C(F)(F)F)C3)CC2)c(-c2cnn(C)c2)cc1Nc1cc(N2OCC[C@@H]2c2cccc(F)c2F)ncn1 (stereo partly drawn) [Example 73, 6-((R)-3-(2,3-difluorophenyl)isoxazolidin-2-yl)-N-(2-methoxy-5-(1-methyl-1H-pyrazol-4-yl)-4-(4-(2-(trifluoromethyl)morpholino)piperidin-1-yl)phenyl)pyrimidin-4-amine]	100 to 1000
COc1cc(N2CCN(C)CC2)c(-c2ccoc2)cc1Nc1cc(N2OCC[C@@H]2c2cccc(F)c2F)ncn1 [Example 75, (R)-6-(3-(2,3-difluorophenyl)isoxazolidin-2-yl)-N-(5-(furan-3-yl)-2-methoxy-4-(4-methylpiperazin-1-yl)phenyl)pyrimidin-4-amine]	100 to 1000

The next lines start with the values.

GI50 [nM]	Structure (SMILES)
< 100	COc1cc(N2CCOCC2)c(-c2cn(C)nc2F)cc1Nc1cc(N2OCC[C@@H]2c2cccc(F)c2F)ncn1 [Example 16, (R)-6-(3-(2,3-difluorophenyl)isoxazolidin-2-yl)-N-(5-(3-fluoro-1-methyl-1H-pyrazol-4-yl)-2-methoxy-4-morpholinophenyl)pyrimidin-4-amine]
100 to 1000	COc1cc(N2CCC(C3COC3)CC2)c(-c2cn(C)nc2F)cc1Nc1cc(N2OCC[C@@H]2c2cccc(F)c2F)ncn1 [Example 17, (R)-6-(3-(2,3-difluorophenyl)isoxazolidin-2-yl)-N-(5-(3-fluoro-1-methyl-1H-pyrazol-4-yl)-2-methoxy-4-(4-(oxetan-3-yl)piperidin-1-yl)phenyl)pyrimidin-4-amine]
< 100	COc1cc(N2CCC3(CC2)CC(N(C)C)C3)c(-c2cnn(C)c2)cc1Nc1cc(N2OCC[C@@H]2c2cccc(F)c2F)ncn1 [Example 31, (R)-7-(4-((6-(3-(2,3-difluorophenyl)isoxazolidin-2-yl)pyrimidin-4-yl)amino)-5-methoxy-2-(1-methyl-1H-pyrazol-4-yl)phenyl)-N,N-dimethyl-7-azaspiro[3.5]nonan-2-amine]
100 to 1000	COc1cc(N2CCC3(CCC(OC)CC3)CC2)c(-c2cnn(C)c2)cc1Nc1cc(N2OCC[C@@H]2c2cccc(F)c2F)ncn1 [Example 42, (R)-6-(3-(2,3-difluorophenyl)isoxazolidin-2-yl)-N-(2-methoxy-4-(9-methoxy-3-azaspiro[5.5]undecan-3-yl)-5-(1-methyl-1H-pyrazol-4-yl)phenyl)pyrimidin-4-amine]
100 to 1000	COc1cc(N2CCOC3(CC3)C2)c(-c2cnn(C)c2)cc1Nc1cc(N2OCC[C@@H]2c2cccc(F)c2F)ncn1 [Example 43, (R)-6-(3-(2,3-difluorophenyl)isoxazolidin-2-yl)-N-(2-methoxy-5-(1-methyl-1H-pyrazol-4-yl)-4-(4-oxa-7-azaspiro[2.5]octan-7-yl)phenyl)pyrimidin-4-amine]
100 to 1000	COc1cc(N2CCC3(CCOCC3)C2)c(-c2cnn(C)c2)cc1Nc1cc(N2OCC[C@@H]2c2cccc(F)c2F)ncn1 [Example 45, (R)-6-(3-(2,3-difluorophenyl)isoxazolidin-2-yl)-N-(2-methoxy-5-(1-methyl-1H-pyrazol-4-yl)-4-(8-oxa-2-azaspiro[4.5]decan-2-yl)phenyl)pyrimidin-4-amine]
< 100	COc1cc(N2CCC(N3CCOCC3)CC2)c(-c2cnn(C)c2)cc1Nc1cc(N2OCC[C@@H]2c2cccc(F)c2F)ncn1 [Example 46, (R)-6-(3-(2,3-difluorophenyl)isoxazolidin-2-yl)-N-(2-methoxy-5-(1-methyl-1H-pyrazol-4-yl)-4-(4-morpholinopiperidin-1-yl)phenyl)pyrimidin-4-amine]
< 100	COc1cc(N2CCC(N3CC(F)(F)C3)CC2)c(-c2cnn(C)c2)cc1Nc1cc(N2OCC[C@@H]2c2cccc(F)c2F)ncn1 [Example 55, (R)-N-(4-(4-(3,3-difluoroazetidin-1-yl)piperidin-1-yl)-2-methoxy-5-(1-methyl-1H-pyrazol-4-yl)phenyl)-6-(3-(2,3-difluorophenyl)isoxazolidin-2-yl)pyrimidin-4-amine]
< 100	COc1cc(N2CCC3(CC2)CCN(C2COC2)CC3)c(-c2cnn(C)c2)cc1Nc1cc(N2OCC[C@@H]2c2cccc(F)c2F)ncn1 [Example 56, (R)-6-(3-(2,3-difluorophenyl)isoxazolidin-2-yl)-N-(2-methoxy-5-(1-methyl-1H-pyrazol-4-yl)-4-(9-(oxetan-3-yl)-3,9-diazaspiro[5.5]undecan-3-yl)phenyl)pyrimidin-4-amine]
< 100	COc1cc(N2CCC3CCN(C)C3C2)c(-c2cnn(C)c2)cc1Nc1cc(N2OCC[C@@H]2c2cccc(F)c2F)ncn1 (stereo partly drawn) [Example 62, 6-((R)-3-(2,3-difluorophenyl)isoxazolidin-2-yl)-N-(2-methoxy-5-(1-methyl-1H-pyrazol-4-yl)-4-(1-methyloctahydro-6H-pyrrolo[2,3-c]pyridin-6-yl)phenyl)pyrimidin-4-amine]
< 100	COc1cc(N2CCC(CN3CCC(CC(F)(F)F)C3)CC2)c(-c2cnn(C)c2)cc1Nc1cc(N2OCC[C@@H]2c2cccc(F)c2F)ncn1 (stereo partly drawn) [Example 63, 6-((R)-3-(2,3-difluorophenyl)isoxazolidin-2-yl)-N-(2-methoxy-5-(1-methyl-1H-pyrazol-4-yl)-4-(4-((3-(2,2,2-trifluoroethyl)pyrrolidin-1-yl)methyl)piperidin-1-yl)phenyl)pyrimidin-4-amine]
< 100	COc1cc(N2CC[C@H](OC)[C@H](F)C2)c(-c2cnn(C)c2)cc1Nc1cc(N2OCC[C@@H]2c2cccc(F)c2F)ncn1 [Example 67, 6-((R)-3-(2,3-difluorophenyl)isoxazolidin-2-yl)-N-(4-((3R,4S)-3-fluoro-4-methoxypiperidin-1-yl)-2-methoxy-5-(1-methyl-1H-pyrazol-4-yl)phenyl)pyrimidin-4-amine]
